“Also recorded” adds a separate entry of the source.
System: CCR6
Experiment: Inhibition of CCL18-induced CCR6 down-regulation on mononuclear cells (flow cytometry)
Format: cell-based
Conditions: freshly isolated human lymphocytes/PBMNC, 20 minutes, FACS; for CCL18 induced down-regulation of CCR6 expression: CCL18 10 ng/ml plus inhibitor 100 ng/ml
Experimental: Freshly isolated mononuclear cells were incubated for 20 minutes with 10 ng/ml of CCL18, 100ng/ml of the inhibitor peptide PS-AU-105 (polypeptide according to SEQ ID NO.:1), a combination of both or were left untreated. The incubation was performed in RPMI1640 with 10% fetal calf serum and 100 U/ml Streptomycin/Penicillin at 37°C. After the incubation, the cells were centrifugated and the supernatant was discarded. The cells were fixed with 4% paraformaldehyde for 5 minutes on ice and washed twice in PBS containing 1% FCS. After fixation the cells were stained using a fluorescein-conjugated antibody against CCR6 (R&D systems, Wiesbaden, FRG) and analyzed by flow cytometry (FACScalibur and Quantiquest; both Beckon Dickinson, Franklin Lakes, USA).
This CCL18 induced redaction of CCR6 expression is diminished in the presence of the inhibitor peptide PS-AU-105 (polypeptide according to SEQ ID No.: 1).

## PS-AU-105: inhibitor peptide, polypeptide according to SEQ ID NO.:1; 29 amino acids, artificial, peptide inhibitor of CCR6 (EDCCLVYTSWQIHPKFIVDYSETSPQCPK)
  CCL18 induced down-regulation of CCR6 expression: diminished; also recorded: fails to down-regulate the CCR6^+ sub-population
Listed as PS-AU-1015
  CCL18 induced down-regulation of CCR6 expression: this down-regulation docs not occur
Inhibitor 100 ng/ml alone
  CCR6 expression, inhibitor only: no effect

From EP2399598B1, “Blockade of CCL18 signaling via CCR6 as a therapeutic option in fibrotic diseases and cancer” (Universitätsklinikum Freiburg, priority 2010, dated 2014)
